Molecules are shown by their SMILES. pIC50: −log10 of the molar value.

T1 sequence (Q92633 whole entry): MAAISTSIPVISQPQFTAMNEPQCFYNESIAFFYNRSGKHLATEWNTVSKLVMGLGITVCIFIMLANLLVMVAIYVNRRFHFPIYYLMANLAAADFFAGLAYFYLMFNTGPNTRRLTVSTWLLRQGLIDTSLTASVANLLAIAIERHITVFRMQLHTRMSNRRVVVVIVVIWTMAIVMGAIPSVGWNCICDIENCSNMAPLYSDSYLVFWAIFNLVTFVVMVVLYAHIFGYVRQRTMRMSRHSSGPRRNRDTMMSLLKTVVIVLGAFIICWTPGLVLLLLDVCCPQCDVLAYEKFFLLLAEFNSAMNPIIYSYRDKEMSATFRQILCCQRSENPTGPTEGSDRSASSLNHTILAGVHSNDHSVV

The first experiment addresses T1, human LPAR1 (Homo sapiens, UniProt Q92633).
T1 construct: expressed in transfected cells
The experiment is described as follows: Test Example 1: antagonism against response of LPA-induced increase in intracellular Ca2+ concentration in RH7777 cells stably expressing human LPAR1. Type of experiment: cell-based.
Conditions: not given
Here is the method: (1) Preparation of RH7777 cells stably expressing human LPAR1
The human LPAR1 expression vector was transfected into RH7777 cells to acquire human LPAR1 expressing cells.
(2) Test of antagonism against response of LPA-induced increase in intracellular Ca^2+ concentration
Cells stably expressing human LPAR1 were used for a test of antagonism against response of LPA-induced increase in intracellular Ca^2+ concentration.
The cells were seeded onto the Poly-D-Lysine 96 well black plate and incubated overnight. […] 50 μL of the Basal Buffer (1×HBSS, 20 mM HEPES, 2.5 mM Probenecid, 0.05% BSA, 0.25 mg/mL Amaranth, pH 7.4) containing the test compound was added thereto, followed by incubation at 37° C. for 30 minutes. In FDSS6000 (Hamamatsu Photonics K.K.), LPAs were added, and the change in intracellular Ca^2+ concentration was detected using the fluorescence value of a wavelength of 540 nm by an excitation wavelength of 480 nm as an indicator. […] The Rmax under […] without the test compound was used as the control value. The Rmax under Basal Buffer stimulation with no LPAs or test compounds was used as the basal value.
The percentage (%) of increase in intracellular Ca^2+ concentration was calculated by dividing the value obtained by subtracting the basal value from Rmax in the presence of LPAs and each concentration of the test compound by the value obtained by subtracting the basal value from the control value. The concentration of each test compound was plotted on the X axis and the percentage (%) of increase in intracellular Ca^2+ concentration was plotted on the Y axis, and the IC50 value was calculated by nonlinear regression using XLfit.
What is called pIC50 is the negative decadic logarithm of the IC50, by convention in mol/L. Read a low pIC50 as a high IC50. On to `COc1cc(C(C)N(CCCCc2ccccc2)C(=O)NC2(C(=O)O)CC(F)(F)C2)cc(OC)c1C` (centres unmarked) [Example 1-66], for which the pIC50 is 8.40.

The experiment is the same for the next values; noted with them: RH7777 cells stably expressing human LPAR1; Fluo-4 fluorescence, FDSS6000; read-out: IC50 value (concentration producing 50% antagonism against response of LPA-induced increase in intracellular Ca2+ concentration) (converted).
Take `CCOc1cc([C@@H](C)N(CCCCc2ccccc2)C(=O)NC2(C(=O)O)CC2)cc(OCC)c1C` [Example 1-17]: the IC50 is 23.7 nM.
Still for that read-out and setting: the figure for `CCOc1cc([C@@H](C)N(CCCCc2ccccc2)C(=O)NC2(C(=O)O)CC2)cc(OCC)c1C1CC1` [Example 1-18] is 1.09 nM.
Turning to `CCOc1c(C(C)=O)ccc([C@@H](C)N(CCCCc2ccccc2)C(=O)NC2(C(=O)O)CC2)c1C` [Example 1-19], the IC50 is 4.1 nM.
The same measure, in the same setting: the figure for `CCOc1cc([C@@H](C)N(CCCCc2ccccc2)C(=O)NC2(C(=O)O)CCC2)cc(OCC)c1C(C)=O` [Example 1-20] is 0.621 nM.
The same measure, in the same setting: the figure for `COc1cc(C(C)N(CCCCc2ccccc2)C(=O)NC2(C(=O)O)CCC2)cc(OC)c1C` (centres unmarked) [Example 1-23] is 13 nM.
On the same count and under the same terms, in the case of `CCOc1cc([C@@H](C)N(CCCCc2ccccc2)C(=O)NC2(C(=O)O)CCC2)cc(OCC)c1C` [Example 1-24] it was 3.54 nM.
On to `CCOc1cc(C(C)N(CCCCc2ccccc2)C(=O)NC2(C(=O)O)CC(F)(F)C2)cc(OCC)c1C1CC1` (centres unmarked) [Example 1-25], for which the IC50 was 2.71 nM.
`CCOc1cc(C(C)N(CCCCc2ccccc2)C(=O)NC2(C(=O)O)CC(F)(F)C2)cc(OCC)c1C(C)=O` (centres unmarked) [Example 1-29]: the IC50 is 3.12 nM.
Turning to `CCOc1cc([C@@H](C)N(CCCCc2ccccc2)C(=O)NC2(C(=O)O)CC(F)(F)C2)cc(OCC)c1C(C)=O` [Example 1-30, 1-({[(1R)-1-(4-Acetyl-3,5-Diethoxyphenyl)Ethyl](4-Phenylbutyl) Carbamoyl}Amino)-3,3-Difluorocyclobutane-1-Carboxylic Acid], the IC50 was 1.75 nM.
The same measure, in the same setting: the figure for `CCOc1cc([C@H](C)N(CCCCc2ccccc2)C(=O)NC2(C(=O)O)CC(F)(F)C2)cc(OCC)c1C(C)=O` [Example 1-31, 1-({[(1S)-1-(4-Acetyl-3,5-Diethoxyphenyl)Ethyl](4-Phenylbutyl) Carbamoyl}Amino)-3,3-Difluorocyclobutane-1-Carboxylic Acid] is 177 nM.
The same measure, in the same setting: the figure for `CCOc1cc(C(C)N(CCCCc2ccccc2)C(=O)NC2(C(=O)O)CC(F)(F)C2)cc(OCC)c1C(C)(C)O` (centres unmarked) [Example 1-32] is 8.93 nM; for `CCOc1cc(C(C)N(CCCCc2ccccc2)C(=O)NC2(C(=O)O)CC(F)(F)C2)cc(OCC)c1C(O)CC` (centres unmarked) [Example 1-33] it is 7.13 nM.
The same measure, in the same setting: the figure for `CCOc1cc(C(C)N(CCCCc2ccccc2)C(=O)NC2(C(=O)O)CC(F)(F)C2)cc(OCC)c1C(C)O` (centres unmarked) [Example 1-34] is 1.99 nM.
For the compound `CCOc1cc(C(C)N(CCCCc2ccccc2)C(=O)NC2(C(=O)O)CC(F)(F)C2)cc(OCC)c1C1(O)CC1` (centres unmarked) [Example 1-37], the IC50 is 3.45 nM.
The same measure, in the same setting: the figure for `CCOc1cc(C(C)N(CCCCc2ccccc2)C(=O)NC2(C(=O)O)CC(F)(F)C2)cc(OCC)c1C1(O)CC1` (centres unmarked) [Example 1-38] is 5.4 nM.
Regarding `CCOc1cc(C(C)N(CCCCc2ccccc2)C(=O)NC2(C(=O)O)CC(F)(F)C2)cc(OCC)c1C(=O)O` (centres unmarked) [Example 1-39], the IC50 was 5640 nM.
Still for that read-out and setting: the figure for `CCOc1cc(C(C)N(CCCCc2ccccc2)C(=O)NC2(C(=O)O)CC(F)(F)C2)cc(OCC)c1C(N)=O` (centres unmarked) [Example 1-40, 1-({[1-(4-Carbamoyl-3,5-Diethoxyphenyl)Ethyl](4-Phenylbutyl) Carbamoyl}Amino)-3,3-Difluorocyclobutane-1-Carboxylic Acid] is 103 nM; for `CCOc1cc(C(C)N(CCCCc2ccccc2)C(=O)NC2(C(=O)O)CC(F)(F)C2)cc(OCC)c1C#N` (centres unmarked) [Example 1-41] it is 6.15 nM; for `CCOc1cc(C(C)N(CCCCc2ccccc2)C(=O)NC2(C(=O)O)CC(F)(F)C2)cc(OCC)c1Br` (centres unmarked) [Example 1-42] it is 4.02 nM.
The same measure, in the same setting: the figure for `CCOc1cc([C@@H](C)N(CCCCc2ccccc2)C(=O)NC2(C(=O)O)CC(F)(F)C2)cc(OCC)c1C1CC1` [Example 1-46, Sodium 1-({[(1R)-1-(4-Cyclopropyl-3,5-Diethoxyphenyl)Ethyl](4-Phenylbutyl) Carbamoyl}Amino)-3,3-Difluorocyclobutane-1-Carboxylate] is 1 nM; for `CCOc1cc(C(C)N(CCCCc2ccccc2)C(=O)NC2(C(=O)O)CC(F)(F)C2)cc(OCC)c1CC` (centres unmarked) [Example 1-47] it is 2.71 nM.
Turning to `CCOc1cc([C@@H](C)N(CCCCc2ccccc2)C(=O)NC2(C(=O)O)CC(F)(F)C2)cc(OCC)c1CC` [Example 1-48], the IC50 was 2.47 nM.
Still for that read-out and setting: in the case of `CCOc1cc(C(C)N(CCCCc2ccccc2)C(=O)NC2(C(=O)O)CC(F)(F)C2)cc(OCC)c1C(C)C` (centres unmarked) [Example 1-49] it was 5.21 nM.
Still for that read-out and setting: in the case of `CCOc1cc(C(C)N(CCCCc2ccccc2)C(=O)NC2(C(=O)O)CC(F)(F)C2)cc(OCC)c1CO` (centres unmarked) [Example 1-50, 1-{[{1-[3,5-Diethoxy-4-(Hydroxymethyl)Phenyl]Ethyl}(4-Phenylbutyl) Carbamoyl]Amino}-3,3-Difluorocyclobutane-1-Carboxylic Acid] it was 3.68 nM.
As for `CCOc1cc(C(C)N(CCCCc2ccccc2)C(=O)NC2(C(=O)O)CC(F)(F)C2)cc(OCC)c1C(F)F` (centres unmarked) [Example 1-51], the IC50 is 3.52 nM.
On the same count and under the same terms, the figure for `CCOc1cc(C(C)N(CCCCc2ccccc2)C(=O)NC2(C(=O)O)CC(F)(F)C2)cc(OCC)c1C(O)C(F)(F)F` (centres unmarked) [Example 1-52] is 7.96 nM; for `C=Cc1c(OCC)cc(C(C)N(CCCCc2ccccc2)C(=O)NC2(C(=O)O)CC(F)(F)C2)cc1OCC` (centres unmarked) [Example 1-53] it is 3 nM; for `C=C(C)c1c(OCC)cc(C(C)N(CCCCc2ccccc2)C(=O)NC2(C(=O)O)CC(F)(F)C2)cc1OCC` (centres unmarked) [Example 1-54] it is 3.25 nM.
Same read-out and setting: the figure for `CCOc1cc(C(C)N(CCCCc2ccccc2)C(=O)NC2(C(=O)O)CC(F)(F)C2)cc(OCC)c1OCC` (centres unmarked) [Example 1-55] is 7.44 nM.
On to `CCOc1cc(C(C)N(CCCCc2ccccc2)C(=O)NC2(C(=O)O)CC(F)(F)C2)cc(OCC)c1C(C)=O` (centres unmarked) [Example 1-56], for which the IC50 was 33 nM.
As for `CCOc1cc(C(C)N(CCCCc2ccccc2)C(=O)NC2(C(=O)O)CC(F)(F)C2)cc(OCC)c1S(C)(=O)=O` (centres unmarked) [Example 1-57], the IC50 was 26.6 nM.
On the same count and under the same terms, in the case of `CCOc1cc(C(C)N(CCCCc2ccccc2)C(=O)NC2(C(=O)O)CC(F)(F)C2)cc(OCC)c1C(=O)CC` (centres unmarked) [Example 1-58] it was 4.24 nM.
In the case of `CCOc1cc(C(C)N(CCCCc2ccccc2)C(=O)NC2(C(=O)O)CC(F)(F)C2)cc(OCC)c1C(=O)C(F)(F)F` (centres unmarked) [Example 1-59], the IC50 was 14.9 nM.
Still for that read-out and setting: the figure for `CCOc1cc(C(C)N(CCCCc2ccccc2)C(=O)NC2(C(=O)O)CC(F)(F)C2)cc(OCC)c1C(=O)OC` (centres unmarked) [Example 1-60] is 5.46 nM; for `CCOc1cc(C(C)N(CCCCc2ccccc2)C(=O)NC2(C(=O)O)CC(F)(F)C2)cc(OCC)c1C(=O)NC` (centres unmarked) [Example 1-61] it is 103 nM.
Regarding `CCOc1cc(C(C)N(CCCCc2ccccc2)C(=O)NC2(C(=O)O)CC(F)(F)C2)cc(O)c1C(C)=O` (centres unmarked) [Example 1-62, 1-({[1-(4-Acetyl-3-Ethoxy-5-Hydroxyphenyl)Ethyl](4-Phenylbutyl) Carbamoyl}Amino)-3,3-Difluorocyclobutane-1-Carboxylic Acid], the IC50 was 6.76 nM.
For the compound `CCOc1cc(C(C)N(CCCCc2ccccc2)C(=O)NC2(C(=O)O)CC(F)(F)C2)cc(OCC(F)(F)F)c1C` (centres unmarked) [Example 1-63], the IC50 was 10.9 nM.
